By melting point is commonly meant the temperature of the solid-liquid transition.

One series deals with E. faecalis A6221420. Briefly: Combination Time-kill kinetics. It is filed as cell-based. Particulars: Meropenem alone, 4 × MIC (16 ug/ml). The procedure: (§1) As used herein, “synergy” refers to the in vitro effect of administration of a combination of an antibacterial agent such as a Fab I inhibiter, and antiinfective agent such that (1) the fractional inhibitory concentration (FIC) is less than or equal to 0.5 in an FIC assay described herein; or (2) there is at least a 100-fold (2 log10) increase in killing at 24 hours for the combination as compared with the bioactive agent alone in a time kill curve assay as described herein. An FIC of ≦0.5 is evidence of synergy. An additive response has an FIC value of >0.5 and less than or equal to 1, while an indifferent response has an FIC value of >1 and ≦2. An additive effect may still indicate that the combination of bioactive agent and cationic peptide are therapeutically useful.

The next series has as its system S. aureus strains. As to the kind of experiment: Checkerboard combination studies of compound G and commercial antibiotics (FIG. 6). Conditions: in combination with compound G, S. aureus strains tested. It is filed as cell-based. The protocol:
Checkerboard experiments were performed and analyzed according to standard procedures as outlined below.

Series [1] has as its system S. pneumoniae 22425, a penicillin and macrolide resistant clinical isolate. As to the kind of experiment: Combination time-kill studies. It is filed as cell-based. Particulars: for effect of compound G on the bactericidal activity (kill kinetics, kill extent) of the antibiotic: combination with compound G at 0.03 μg/ml and 1 μg/ml, S. pneumoniae. The protocol: Combination time-kill studies were performed as follows. Bacterial inocula were prepared as for MIC determination according to CLSI guidelines. Log phase cells (˜10^6 CFU/ml) were inoculated into 24 well plates and incubated with the indicated concentrations of compound G and commercial antibiotics for 24 hours at 35° C. At indicated time points samples were removed for determination of viable CFU counts. Results are plotted as log CFU/ml vs. time.

For the next series, the system named is S. pneumoniae 22257. As to the kind of experiment: Combination Time-kill kinetics. Format: cell-based. Particulars: antibiotic alone at 4 × MIC (Azithromycin 0.12 ug/ml, Cefuroxime 8 ug/ml). The procedure: as §1
A further series relates to S. pneumoniae 22425. Briefly: Combination Time-kill kinetics. Conditions: Gatifloxacin alone, 4 × MIC (2 ug/ml). Format: cell-based. The protocol:
as §1

Marks after values point to notes of the source that are not given here.

With `C[C@@H](O)[C@H]1C(=O)N2C(C(=O)O)=C(S[C@@H]3CN[C@H](C(=O)N(C)C)C3)[C@H](C)[C@H]12` [Meropenem, reference compound], in the series with E. faecalis A6221420, the “logCFU/ml at Time (hr): 0” value was determined as 5.12 logCFU/ml, the “logCFU/ml at Time (hr): 2” value is recorded as 4.31 logCFU/ml, the “logCFU/ml at Time (hr): 4” value was determined as 3.41 logCFU/ml and the “logCFU/ml at Time (hr): 8” value was 2.67 logCFU/ml. In addition, in the series with E. faecalis A6221420, the “logCFU/ml at Time (hr): 24” value was ≤ 1.70* logCFU/ml and the “ΔlogCFU/ml (24-0 hr)” value is recorded as −3.43 logCFU/ml.

For the molecule Gentamicin, the “combination effect with compound G (synergistic / additive / antagonism)” value in the series on S. aureus strains is “synergistic effect”.

For `CC[C@H]1OC(=O)[C@H](C)[C@@H](O[C@H]2C[C@@](C)(OC)[C@@H](O)[C@H](C)O2)[C@H](C)[C@@H](O[C@@H]2O[C@H](C)C[C@H](N(C)C)[C@H]2O)[C@](C)(O)C[C@@H](C)CN(C)[C@H](C)[C@@H](O)[C@]1(C)O` [Azithromycin, reference compound], in series [1], the “effect of compound G on the bactericidal activity (kill kinetics, kill extent) of the antibiotic” value (“effect of compound G” below) was “no effect”. Moreover, in the series with S. pneumoniae 22257, the “logCFU/ml at Time (hr): 0” value worked out at 6.35 logCFU/ml, the “logCFU/ml at Time (hr): 3” value was determined as 4.53 logCFU/ml, the “logCFU/ml at Time (hr): 6” value was 3.39 logCFU/ml and the “logCFU/ml at Time (hr): 8” value is ≤ 1.70* logCFU/ml. For the same molecule, in the series with S. pneumoniae 22257, the “logCFU/ml at Time (hr): 24” value is on record as ≤ 1.70* logCFU/ml and the “ΔlogCFU/ml (24-0 hr)” value is −4.65 logCFU/ml.

`CC(=O)NC[C@H]1CN(c2ccc(N3CCOCC3)c(F)c2)C(=O)O1` [linezolid]: the “combination effect with compound G (synergistic / additive / antagonism)” value in the series on S. aureus strains is “synergistic effect”.

For `CO/N=C(\C(=O)N[C@@H]1C(=O)N2C(C(=O)O)=C(COC(N)=O)CS[C@H]12)c1ccco1` [Cefuroxime, reference compound], the “effect of compound G” value in series [1] is “no effect”. Moreover, in the series with S. pneumoniae 22257, the “logCFU/ml at Time (hr): 0” value worked out at 6.39 logCFU/ml, the “logCFU/ml at Time (hr): 3” value is on record as 1.92 logCFU/ml, the “logCFU/ml at Time (hr): 6” value is reported as 1.70 logCFU/ml and the “logCFU/ml at Time (hr): 8” value was ≤ 1.70* logCFU/ml. For the same molecule, in the series with S. pneumoniae 22257, the “logCFU/ml at Time (hr): 24” value is recorded as ≤ 1.70* logCFU/ml and the “ΔlogCFU/ml (24-0 hr)” value is −4.69 logCFU/ml.

Regarding `CN1CCN(C(=O)CCC(=O)Nc2ccc(/C=C/C(=O)N(C)Cc3cc4ccccc4n3C)cn2)CC1` [Example 215, (E)-N-(5-{2-[Methyl-(1-methyl-1H-indol-2-Ylmethyl)carbamoyl]vinyl}pyridin-2-yl)-4-(4-methyl-piperazin-1-yl)-4-oxo-butyramide], the melting point is 145 to 147 °C (dec.).

For `CN(Cc1cc2ccccc2n1C)C(=O)/C=C/c1ccc(NC(=O)CCC(=O)N2CCOCC2)nc1` [Example 216, (E)-N-(5-{2-[Methyl-(1-methyl-1H-indol-2-ylmethyl)carbamoyl]vinyl}pyridin-2-yl)-4-morpholin-4-yl-4-oxo-butyramide], the melting point was 206 to 209 °C (dec.).

`CN(Cc1cc2ccccc2n1C)C(=O)/C=C/c1ccc(N2C(=O)CCC2=O)nc1` [Example 213, (E)-3-[6-(2,5-Dioxo-pyrrolidin-1-yl)pyridin-3-yl]-N-methyl-N-(1-methyl-1H-indol-2-ylmethyl)acrylamide] displayed a melting point of 185 to 187 °C.

Turning to `CN(Cc1cc2ccccc2n1C)C(=O)/C=C/c1ccc(NC(=O)CCC(N)=O)nc1` [Example 214, (E)-N-(5-{2-[Methyl-(1-methyl-1H-indol-2-ylmethyl)carbamoyl]vinyl}pyridin-2-yl)succinamide], the melting point fell in the range of 225 to 227 °C.

Regarding `COc1c(N2CCNC(C)C2)c(F)cc2c(=O)c(C(=O)O)cn(C3CC3)c12` (stereo not drawn) [Gatifloxacin, reference compound], the “bactericidal activity, log reduction in CFU at 24 hours” value in series [1] (antibiotic alone, S. pneumoniae 22425, 24 hours, FIG. 8) is on record as −3.5 log. Moreover, the “effect of compound G” value in series [1] was “no effect”. In the series with S. pneumoniae 22425, the “logCFU/ml at Time (hr): 0” value amounted to 5.18 logCFU/ml, the “logCFU/ml at Time (hr): 2” value was determined as 4.26 logCFU/ml, the “logCFU/ml at Time (hr): 6” value was 2.77 logCFU/ml and the “logCFU/ml at Time (hr): 24” value is given as ≤ 1.70* logCFU/ml. Also, the “ΔlogCFU/ml (24-0 hr)” value in the series on S. pneumoniae 22425 was −3.48 logCFU/ml.
